Structures can show the parent of a compound that is named as a salt.
Target: T1, dopamine receptor DAR4 (Homo sapiens, UniProt P21917)
T1 construct: host or cells: HTLA (HEK 293-derived)
T1 sequence (P21917 1-419): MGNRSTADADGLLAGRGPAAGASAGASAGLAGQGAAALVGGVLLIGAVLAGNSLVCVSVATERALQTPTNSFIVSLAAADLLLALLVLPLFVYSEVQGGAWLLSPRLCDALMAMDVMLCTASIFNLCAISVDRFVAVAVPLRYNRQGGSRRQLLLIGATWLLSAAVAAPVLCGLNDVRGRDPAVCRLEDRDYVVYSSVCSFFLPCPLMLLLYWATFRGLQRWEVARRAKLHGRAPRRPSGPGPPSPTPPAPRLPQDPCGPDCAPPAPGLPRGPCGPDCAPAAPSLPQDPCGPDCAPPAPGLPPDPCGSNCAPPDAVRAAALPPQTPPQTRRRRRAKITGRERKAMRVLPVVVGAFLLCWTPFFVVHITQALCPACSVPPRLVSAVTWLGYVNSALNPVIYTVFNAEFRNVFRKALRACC
Assay: PRESTO-Tango β-arrestin 2 recruitment assay, DAR4
Type: cell-based
Settings: DAR4, 0-500 nM
Source text: However, binding to a specific receptor/transporter and, thus, the mechanism of action of a given cathinone always depends on the specific structure of the evaluated compound [37]. In this study, the binding activity of IBMcat and its enantiomers was verified by PRESTO-Tango (parallel receptor expression and screening via transcriptional output, with transcriptional activation following arrestin-2 translocation) assay using the HTLA cell line stably producing β-arrestin-2 in a fusion with TEV and luciferase production driven by tTA. For this purpose, the HTLA cells were transiently transfected with plasmid DNA encoding the dopamine receptors type 1-4 (DAR1-4), which also contain the TEV protease cleavage site followed by tTA at the 3’-end (DAR1-Tango, DAR2-Tango, DAR3-Tango, DAR4-Tango). In the case of the receptor activation by a ligand, in transfected cells, the receptor is desensitized by β-arrestin fused to TEV protease. This brings the TEV protease close to the site that specifically cleaves and, thus, the transcription factor can be cleaved. The transcription factor then translocates to the cell nucleus, in which it triggers the transcription of the target gene for luciferase production which can be determined by the light emitted from luciferin conversion to oxyluciferin. Here, the pronounced luminescence was recorded for all DAR1-4 types in HTLA cells treated with IBMCat and its enantiomers (Figure 8).
The HTLA cell line was used for the PRESTO-Tango β-arrestin recruitment assay. […]
The transfected HTLA cells were incubated for 24 h, and then 1 × 10^4 cells were seeded per well of a white 96-well clear bottom plate (Brand, Germany) in 40 μL of DMEM with 1% charcoal-stripped FBS (Thermo Fisher Scientific, USA). […] After 5 min., the luminescence was measured using a multi-mode microplate reader SpectraMax iD5 (Molecular Devices, San Jose, CA, USA) measuring the entire wavelength spectrum. All samples were measured in quadruplicates. The data were evaluated by Prism 7 software (GraphPad, San Jose, CA, USA).

Compound | maximum increase in RLU compared to untreated control [fold]
CNC(C)C(=O)c1ccc(CC(C)C)cc1.Cl (stereo not drawn) [IBMcat, 4-isobutylmethcathinone hydrochloride] | 2
CN[C@@H](C)C(=O)c1ccc(CC(C)C)cc1 [S-IBMCat, (S)-4-isobutylmethcathinone hydrochloride] | 2
CN[C@H](C)C(=O)c1ccc(CC(C)C)cc1 [R-IBMCat] | 1.5

— PMC9780888, “4-Isobutylmethcathinone—A Novel Synthetic Cathinone with High In Vitro Cytotoxicity and Strong Receptor Binding Preference of Enantiomers” (Pharmaceuticals, 2022)
